Reference: US6235787A, “Hydrazine derivatives” (Hoffmann-La Roche Inc., priority 1997, dated 2001)

Legend:
Type in all cases: cell-based
[1] = tested on: TNF-α release (THP1 cells); assay: Test A: Inhibition of TNF-α Release (LPS-stimulated THP1 cells, ELISA); conditions: Homo sapiens, THP-1, LPS-induced TNF-α release, 3 hours, 37° C., read-out: Test A IC50 (nMol)
Method: Test A: Inhibition of TNF-α Release
THP1 cells were cultivated in RPMI 1640 medium supplemented with antibiotics and 10% foetal calf serum, harvested by centrifugation and diluted to 5×10^5 cells/ml in the above medium supplemented with 20 mM HEPES buffer. Aliquots ([…]) of the cell suspension were plated out on 96 well culture plates and incubated for 0.5 hour at 37° C. prior to the addition of the test compounds. The latter were dissolved in dimethyl sulphoxide (DMSO) to a stock concentration of 1.2 mM which was diluted with phosphate buffered saline/10% DMSO solution to provide test compounds in final concentrations of 10^-9 to 10^-5 M, with each concentration being tested in duplicate. The cells were incubated with the test compounds for 0.5 hour at 37° C., LPS (bacterial lipopolysaccharide) was then added to a concentration of […] and incubation was continued for 3 hours at 37° C. in an atmosphere containing 5% CO2 and at 95% relative humidity. After centrifugation at 260 g for 10 minutes an aliquot of each supernatant was removed and the amount of TNF-a was estimated by ELISA (R & D Systems Europe Ltd., Abingdon, England). The concentration of test compound which brings about 50% inhibition of LPS-induced TNF-a release (IC50) was computed from the dose-response curve.

[2] = tested on: TGF-α release (Normal human epidermal keratinocytes); assay: Test B: Inhibition of TGF-α Release (TPA-stimulated NHEK); conditions: 24 hours, 37° C., read-out: Test B IC50 (nMol)
Method: Test B: Inhibition of TGF-α Release
This test is an adaptation of the method described by R. J. Coffrey, R. Derynk, J. N. Wilcox, T. S. Bringman, A. S. Goustin, H. L. Moses and M. R. Pittelkow, Nature, (1987), 328, 816-820. Normal human epidermal keratinocytes (NHEK) (neonatal and adult) were supplied by Clonetics Corporation, San Diego, Calif., USA and at the third passage were plated out on 96 well culture plates at 2×10^3 to 10^4 cells per well and grown in a humidified incubator having a 5% CO2 atmosphere at 37° C. for 5 days in serum-free keratocyte growth medium (KGM; Clonetics Corporation). Test compounds were dissolved in DMSO and then diluted 10 times in keratinocyte basal medium (KBM; Clonetics Corporation). Serial dilutions of the test compounds were made in 10% DMSO in KBM to provide concentrations 12 times higher than the final assay concentration. The test compound dilutions (or vehicle only as controls) were added to the cells and incubation was then carried out at 37° C. for 0.5 hour. TGF-a release was then stimulated by the addition of 10 ng/ml TPA (phorbol 12-myristate 13-acetate). […]

[3] = tested on: Normal human epidermal keratinocytes (NHEK); assay: Test C: Inhibition of Keratinocyte Proliferation (3H-thymidine incorporation); conditions: 3 days, read-out: Test C IC50 (nMol)
Method: Test C: Inhibition of Keratinocyte Proliferation
This test is an adaptation the methods described by T. Karashima, H. Hachisuka and Y. Sasai, J. Dermatol. Sci., (1996), 12, 246-254 and A. Olaniran, B. S. Baker, J. J. Garioch, A. V. Powles and L. Fry, Arch. Dermatol. Res., (1995), 287, 231-236. Normal human epidermal keratinocytes (NHEK) (neonatal and adult) were plated out on 96 well culture plates at 2×10^3 cells per well. Following attachment of the cells to the plate by incubation for 24 hours in a humidified incubator having a 5% CO2 atmosphere at 37° C. in serum-free KGM (see above), the medium was replaced with KBM (see above) for 4 days in order to arrest the growth of the cells. Test compounds were dissolved in DMSO and then diluted 10 times in KBM. Serial dilutions of the test compounds were made in 10% DMSO in KBM to provide concentrations 11 times higher than the final assay concentration. The cells were then returned to KGM and the test compound dilutions (or vehicle only for controls) were added immediately. After incubation for 3 days the cells were pulsed with […] ^3 H-thymidine, specific activity 5 Ci/mmol (Amersham International plc, Little Chalfont, Buckinghamshire, UK), for the last 16 hours. Cells were then detached using trypsin-EDTA and harvested. ^3 H-Thymidine incorporation as a measure of proliferation was determined by scintillation counting techniques. […]

COC(=O)N(CC(C)C)NC(=O)[C@H](CC(C)C)[C@H](C/C=C/c1ccccc1)C(=O)NO [Compound I, Methyl (E)-3-[2(R)-[1(S)-(hydroxycarbamoyl)-4-phenyl-3-butenyl]-4-methylvaleryl]-2-isobutylcarbazate]
IC50 [1]: 881 nM

CC(C)CC(=O)N(CC(C)C)NC(=O)[C@H](CC(C)C)[C@H](C/C=C/c1ccccc1)C(=O)NO [J, (E)-2(R)-[(S)-(Hydroxycarbamoyl)-4-phenyl-3-butenyl]-2'-(isobutyl)-2'-(isopentanoyl)-4-methylvalerohydrazide]
IC50 [1]: 933 nM

CC(C)C[C@@H](C(=O)NN(c1ccccc1)S(C)(=O)=O)[C@H](C/C=C/c1ccccc1)C(=O)NO [Compound A, (E)-2(R)-[1(S)-(Hydroxycarbamoyl)-4-phenyl-3-butenyl]-2'-(methanesulphonyl)-4-methyl-2'-phenylvalerohydrazide]
IC50 [1]: 437 nM | IC50 [2]: 210 nM | IC50 [3]: 1300 nM

CC(C)C[C@@H](C(=O)NN(CC1CCCCC1)S(C)(=O)=O)[C@H](C/C=C/c1ccccc1)C(=O)NO [D, (E)-2'-(Cyclohexylmethyl)-2(R)-[1(S)-(hydroxycarbamoyl)-4-phenyl-3-butenyl]-2'-(methanesulphonyl)-4-methylvalerohydrazide]
IC50 [1]: 408 nM

CC(C)C[C@@H](C(=O)NN(Cc1ccccc1)S(C)(=O)=O)[C@H](C/C=C/c1ccccc1)C(=O)NO [C, (E)-2'-Benzyl-2(R)-[1(S)-(hydroxycarbamoyl)-4-phenyl-3-butenyl]-2'-(methanesulphonyl)-4-methylvalerohydrazide]
IC50 [1]: 365 nM

CC(C)C[C@@H](C(=O)NN(CC(C)C)S(C)(=O)=O)[C@H](C/C=C/c1ccccc1)C(=O)NO [E, (E)-2(R)-[1(S)-(Hydroxycarbamoyl)-4-phenyl-3-butenyl]-2'-isobutyl-2'-(methanesulphonyl)-4-methylvalerohydrazide]
IC50 [1]: 531 nM

C=C(C)CN(NC(=O)[C@H](CC(C)C)[C@H](C/C=C/c1ccccc1)C(=O)NO)S(C)(=O)=O [H]
IC50 [1]: 381 nM

CC[C@H](C)CN(NC(=O)[C@H](CC(C)C)[C@H](C/C=C/c1ccccc1)C(=O)NO)S(C)(=O)=O [G, (E)-2(R)-[1(S)-(hydroxycarbamoyl)-4-phenyl-3-butenyl]-2'-(methanesulphonyl)-4-methyl-2'-[2(S)-methylbutyl]valerohydrazide]
IC50 [1]: 428 nM

CC(C)C[C@@H](C(=O)NN1C(=O)CCCC1=O)[C@H](C/C=C/c1ccccc1)C(=O)NO [F, (E)-2(R)-[(1S)-(Hydroxycarbamoyl)-4-phenyl-3-butenyl]-4-methyl-N-(2,6-dioxopiperidino)valeramide]
IC50 [1]: 1520 nM

COc1ccc(N(NC(=O)[C@H](CC(C)C)[C@H](C/C=C/c2ccccc2)C(=O)NO)S(C)(=O)=O)cc1 [Compound B, 1(E)-2(R)-[1(S)-(Hydroxycarbamoyl)-4-phenyl-3-butenyl]-2'-(methanesulphonyl)-2'-(4-methoxyphenyl)-4-methylvalerohydrazide]
IC50 [1]: 515 nM | IC50 [2]: 255 nM | IC50 [3]: 1100 nM
